Assay: Inhibition of [3H]pentazocine binding to Sigma opioid receptor type 1

| SMILES | Ki |
| --- | --- |
| CC1(C)C2CC[C@]1(C)CN(CC1CCCCC1)C2 [(S)-3-Cyclohexylmethyl-1,8,8-trimethyl-3-aza-bicyclo[3.2.1]octane] | 1.3 nM |
| C=CCN1CC[C@@]2(C)c3cc(O)ccc3C[C@H]1[C@H]2C [(1S,9S,13S)-10-allyl-1,13-dimethyl-10-azatricyclo[7.3.1.0~2,7~]trideca-2,4,6-trien-4-ol] | 157 nM |
| CC1(C)C2CC[C@@]1(C)CN(CC1CCCCC1)C2 [(R)-3-Cyclohexylmethyl-1,8,8-trimethyl-3-aza-bicyclo[3.2.1]octane] | 1.1 nM |
| CC1(C)C2CC[C@]1(C)CN(CCC1CCCCCC1)C2 [(S)-3-(2-Cycloheptyl-ethyl)-1,8,8-trimethyl-3-aza-bicyclo[3.2.1]octane] | 2.9 nM |
| CC1(C)C2CC[C@]1(C)CN(CCC1C3CC4CC(C3)CC1C4)C2 (stereo partly drawn) [(S)-3-(2-Adamantan-2-yl-ethyl)-1,8,8-trimethyl-3-aza-bicyclo[3.2.1]octane] | 4.3 nM |
| CC1(C)C2CC[C@]1(C)CN(CCC1CCCC1)C2 [(S)-3-(2-Cyclopentyl-ethyl)-1,8,8-trimethyl-3-aza-bicyclo[3.2.1]octane] | 1.7 nM |
| CC1(C)C2CC[C@]1(C)CN(CCC1CCCCCCC1)C2 [(S)-3-(2-Cyclooctyl-ethyl)-1,8,8-trimethyl-3-aza-bicyclo[3.2.1]octane] | 2.9 nM |
| CC1(C)C2CC[C@]1(C)CN(CCC1CCCCC1)C2 [(S)-3-(2-Cyclohexyl-ethyl)-1,8,8-trimethyl-3-aza-bicyclo[3.2.1]octane] | 2.2 nM |
| CC1(C)C2CC[C@]1(C)CN(C1CCCCC1)C2 [(S)-3-Cyclohexyl-1,8,8-trimethyl-3-aza-bicyclo[3.2.1]octane] | 3 nM |
| CC1(C)C2CC[C@@]1(C)CN(CCC1CCCCC1)C2 [(R)-3-(2-Cyclohexyl-ethyl)-1,8,8-trimethyl-3-aza-bicyclo[3.2.1]octane] | 1.4 nM |
| CC1(C)C2CC[C@]1(C)CN(CCCC1CCCCC1)C2 [(S)-3-(3-Cyclohexyl-propyl)-1,8,8-trimethyl-3-aza-bicyclo[3.2.1]octane] | 2.5 nM |
| CC1(C)C2CC[C@]1(C)CN(CCCCC1CCCCC1)C2 [(S)-3-(4-Cyclohexyl-butyl)-1,8,8-trimethyl-3-aza-bicyclo[3.2.1]octane] | 1.2 nM |

— BindingDB's records for doi:10.1016/S0960-894X(97)00417-4 (1997)
